Several values for one entry are separate records, joined by “and”; a condition that tells them apart may be missing. Equal values may be shown once. Read-outs that look alike come from different tables or passages of the source.
Experiments:
Details in all cases: COS-7 membranes
α1d-AR = biological target: T1, α1d-AR (Homo sapiens, UniProt P25100); test: α1-Adrenergic Receptor Binding Assay, 125I-HEAT radio-ligand binding, transfected COS-7 cell membranes, α1d subtype
T1 construct: expressed in transfected cells; host or cells: COS-7 cells (African Green monkey kidney), membranes
T1 sequence (P25100 1-572): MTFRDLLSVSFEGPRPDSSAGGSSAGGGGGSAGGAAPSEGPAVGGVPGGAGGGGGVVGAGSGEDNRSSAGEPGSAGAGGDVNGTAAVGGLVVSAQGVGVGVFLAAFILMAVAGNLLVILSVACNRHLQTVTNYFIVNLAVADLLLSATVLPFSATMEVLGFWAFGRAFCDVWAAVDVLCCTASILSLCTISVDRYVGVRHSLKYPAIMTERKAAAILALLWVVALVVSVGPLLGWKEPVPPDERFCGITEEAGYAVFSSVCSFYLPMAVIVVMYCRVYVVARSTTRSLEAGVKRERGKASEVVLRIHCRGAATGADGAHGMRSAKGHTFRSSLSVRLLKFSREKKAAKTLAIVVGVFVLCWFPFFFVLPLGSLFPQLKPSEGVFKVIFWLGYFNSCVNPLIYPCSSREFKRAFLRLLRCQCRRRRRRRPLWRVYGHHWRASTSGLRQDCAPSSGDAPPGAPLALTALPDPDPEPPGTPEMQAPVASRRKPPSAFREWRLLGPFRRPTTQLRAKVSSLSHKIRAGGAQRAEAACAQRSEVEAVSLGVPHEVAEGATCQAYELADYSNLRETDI
Protocol: (§1) Membranes were prepared from COS-7 cells (African Green monkey kidney SV40-transformed cells) that had been transfected with one of the three α1-AR subtypes by the following method: COS cells from ten 100 mm tissue culture plates were scraped into a 5 ml volume of TE (a mixture of 50 mM tris(hydroxymethyl)aminomethane hydrochloride (Tris-HCl) and 5 mM ethylenediaminetetraacetic acid (EDTA) at pH 7.4). The cell suspension was disrupted with a Brinkman Polytron (at a setting of 8) for 10 sec. The disrupted cells were centrifuged at 1000×g for 10 min at 4° C. Supernatants were centrifuged at 34,500×g for 20 min at 4° C. The membrane pellets were suspended in a 2 ml volume of TNE (a mixture of 50 mM Tris-HCl, 5 mM EDTA and 150 mM NaCl at pH7.4). An aliquot of the membrane suspension was stored at −70° C. until use. The protein concentration was determined using a BioRad “DC” protein assay kit following membrane solubilization with Triton X-100.
(§2) Triplicate determinations of radio-ligand binding in the presence of increasing concentrations of testing compound were made. The reagents were added to 96-well polypropylene plate wells. Each assay well contained 140 μL TNE, 25 μL 125′-2-(β-4-hydroxyphenyl)ethylaminomethyltetralone (^125I-HEAT) (specific activity 2200 Ci/mmol, Dupont-New England Nuclear, […] final), 10 μL testing compound dissolved in dimethyl sulfoxide (DMSO) ([…] to 10 μM in half-log increments, final), and 25 μL appropriate α1-AR membrane subtype suspension in TNE (0.5 ng/μL for the α1a and α1b subtypes and 13 ng/μL for the α1d subtype). The plate was incubated at rt for 1 hr. The contents of the wells were filtered through a glass filter (type C) (GF/C) membrane Unifilter plate (Packard Instruments) using the Packard Filtermate cell harvester. The filter plates were dried in a vacuum oven for 30 min at 40° C. 25 μL Microscint 20 liquid scintillation fluid (Packard Instuments) was added to each well. The radioactive content was analyzed in the TopCount microplate scintillation counter (Packard Instruments).
(§3) The Ki values (in nM) shown in Table 1 were determined using GraphPad Prism software.

α1b-AR = biological target: T2, α1b-AR (Homo sapiens, UniProt P35368); test: α1-Adrenergic Receptor Binding Assay, 125I-HEAT radio-ligand binding, transfected COS-7 cell membranes, α1b subtype
T2 construct: expressed in transfected cells; host or cells: COS-7 cells (African Green monkey kidney), membranes
T2 sequence (P35368 1-520): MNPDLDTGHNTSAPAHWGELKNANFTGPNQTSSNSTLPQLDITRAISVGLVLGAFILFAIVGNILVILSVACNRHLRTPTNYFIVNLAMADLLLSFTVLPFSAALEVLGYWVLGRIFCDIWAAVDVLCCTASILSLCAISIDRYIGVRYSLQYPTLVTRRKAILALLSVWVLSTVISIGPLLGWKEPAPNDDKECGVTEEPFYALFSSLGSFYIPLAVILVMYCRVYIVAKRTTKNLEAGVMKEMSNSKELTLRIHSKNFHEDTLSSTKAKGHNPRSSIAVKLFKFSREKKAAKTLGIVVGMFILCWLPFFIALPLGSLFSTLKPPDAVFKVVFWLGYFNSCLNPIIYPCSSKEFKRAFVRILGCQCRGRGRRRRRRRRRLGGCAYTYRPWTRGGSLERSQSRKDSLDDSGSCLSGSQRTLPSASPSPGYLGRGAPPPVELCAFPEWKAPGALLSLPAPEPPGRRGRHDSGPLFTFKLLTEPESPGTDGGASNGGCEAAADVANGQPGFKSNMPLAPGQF
Protocol: as §1, §2, §3

α1a-AR = biological target: T3, α1a-AR (Homo sapiens, UniProt P35348); test: α1-Adrenergic Receptor Binding Assay, 125I-HEAT radio-ligand binding, transfected COS-7 cell membranes, α1a subtype
T3 construct: expressed in transfected cells; host or cells: COS-7 cells (African Green monkey kidney), membranes
T3 sequence (P35348 1-466): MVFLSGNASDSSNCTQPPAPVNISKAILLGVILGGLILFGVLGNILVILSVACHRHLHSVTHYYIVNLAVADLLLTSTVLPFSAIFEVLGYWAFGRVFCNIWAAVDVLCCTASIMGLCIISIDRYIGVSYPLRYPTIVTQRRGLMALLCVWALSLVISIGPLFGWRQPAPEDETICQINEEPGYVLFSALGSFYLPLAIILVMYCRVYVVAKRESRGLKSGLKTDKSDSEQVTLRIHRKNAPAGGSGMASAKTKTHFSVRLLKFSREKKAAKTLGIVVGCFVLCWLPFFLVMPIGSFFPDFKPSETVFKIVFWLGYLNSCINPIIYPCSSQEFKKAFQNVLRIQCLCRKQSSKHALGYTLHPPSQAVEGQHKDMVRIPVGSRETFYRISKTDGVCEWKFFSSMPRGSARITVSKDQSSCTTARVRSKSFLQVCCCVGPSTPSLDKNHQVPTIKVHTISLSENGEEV
Protocol: as §1, §2, §3

[1] = average value, read-out: Alpha 1 Ki α1d (1) Average Value
[2] = individual values, read-out: Alpha 1 Ki α1d (2) Individual Values
[3] = average value, read-out: Alpha 1 Ki α1b (1) Average Value
[4] = individual values, read-out: Alpha 1 Ki α1b (2) Individual Values
[5] = average value, read-out: Alpha 1 Ki α1a (1) Average Value
[6] = individual values, read-out: Alpha 1 Ki α1a (2) Individual Values

Ki (α1d-AR; [1])	Ki (α1d-AR; [2])	Ki (α1b-AR; [3])	Ki (α1b-AR; [4])	Ki (α1a-AR; [5])	Ki (α1a-AR; [6])	SMILES
90.2 nM	–	191 nM	–	38.2 nM	–	CC(C)Oc1ccccc1N1CCN(CC2CC(C(=O)N3CCc4ccccc43)=NO2)CC1 (single isomer, unassigned) [Compound 36, (2,3-dihydro-indol-1-yl)-{(5S*)-5-[4-(2-isopropoxy-phenyl)-piperazin-1-ylmethyl]-4,5-dihydro-isoxazol-3-yl}-methanone]
0.28 nM	0.28 nM	37 nM	37 nM	0.54 nM	0.54 nM	CC(C)Oc1ccccc1N1CCN(CC2CC(C(=O)N3CCc4ccccc43)=NO2)CC1 (single isomer, unassigned) [Compound 37, (2,3-dihydro-indol-1-yl)-{(5R*)-5-[4-(2-isopropoxy-phenyl)-piperazin-1-ylmethyl]-4,5-dihydro-isoxazol-3-yl}-methanone]
55 nM	55 nM	639 nM	639 nM	132 nM	132 nM	CC(C)Oc1ccccc1N1CCN(CC2CC(C(=O)N3CCC(Oc4ccccc4)CC3)=NO2)CC1 (single isomer, unassigned) [Compound 38, {(5R*)-5-[4-(2-isopropoxy-phenyl)-piperazin-1-ylmethyl]-4,5-dihydro-isoxazol-3-yl}-(4-phenoxy-piperidin-1-yl)-methanone]
8.55 nM	10.4 nM and 6.7 nM	217 nM	223 nM and 210 nM	1.6 nM	1.4 nM and 1.8 nM	CC(C)Oc1ccccc1N1CCN(CC2CC(C(=O)N3CCC(Oc4ccccc4)CC3)=NO2)CC1 (single isomer, unassigned) [Compound 39, {(5S*)-5-[4-(2-isopropoxy-phenyl)-piperazin-1-ylmethyl]-4,5-dihydro-isoxazol-3-yl}-(4-phenoxy-piperidin-1-yl)-methanone]
4.61 nM	4.61 nM	531 nM	531 nM	6.44 nM	6.44 nM	CC(C)Oc1ccccc1N1CCN(CC2CC(C(=O)N3CCC(C(=O)c4ccc(F)cc4)CC3)=NO2)CC1 (single isomer, unassigned) [Compound 40, [4-(4-fluoro-benzoyl)-piperidin-1-yl]-{(5S*)-5-[4-(2-isopropoxy-phenyl)-piperazin-1-ylmethyl]-4,5-dihydro-isoxazol-3-yl}-methanone]
58.1 nM	58.1 nM	1690 nM	1690 nM	240 nM	240 nM	CC(C)Oc1ccccc1N1CCN(CC2CC(C(=O)N3CCC(C(=O)c4ccc(F)cc4)CC3)=NO2)CC1 (single isomer, unassigned) [Compound 41, [4-(4-fluoro-benzoyl)-piperidin-1-yl]-{(5R*)-5-[4-(2-isopropoxy-phenyl)-piperazin-1-ylmethyl]-4,5-dihydro-isoxazol-3-yl}-methanone]
0.44 nM	0.44 nM	289 nM	289 nM	5.87 nM	5.87 nM	CC(C)Oc1ccccc1N1CCN(CC2CC(C(=O)N3CC(C)(C)c4cc(Br)ccc43)=NO2)CC1 (single isomer, unassigned) [Compound 42, (5-bromo-3,3-dimethyl-2,3-dihydro-indol-1-yl)-{(5R*)-5-[4-(2-isopropoxy-phenyl)-piperazin-1-ylmethyl]-4,5-dihydro-isoxazol-3-yl}-methanone]
104 nM	104 nM	1080 nM	1080 nM	317 nM	317 nM	CC(C)Oc1ccccc1N1CCN(CC2CC(C(=O)N3CC(C)(C)c4cc(Br)ccc43)=NO2)CC1 (single isomer, unassigned) [Compound 43, (5-bromo-3,3-dimethyl-2,3-dihydro-indol-1-yl)-{(5S*)-5-[4-(2-isopropoxy-phenyl)-piperazin-1-ylmethyl]-4,5-dihydro-isoxazol-3-yl}-methanone]
19.9 nM	19.9 nM	521 nM	521 nM	2.32 nM	2.32 nM	CC(C)Oc1ccccc1N1CCN(CC2CC(C(=O)N3CCOCC3)=NO2)CC1 (single isomer, unassigned) [Compound 44, {(5S*)-5-[4-(2-isopropoxy-phenyl)-piperazin-1-ylmethyl]-4,5-dihydro-isoxazol-3-yl}-morpholin-4-yl-methanone]
297 nM	297 nM	1060 nM	1060 nM	73.1 nM	73.1 nM	CC(C)Oc1ccccc1N1CCN(CC2CC(C(=O)N3CCOCC3)=NO2)CC1 (single isomer, unassigned) [Compound 45, {(5R*)-5-[4-(2-Isopropoxy-phenyl)-piperazin-1-ylmethyl]-4,5-dihydro-isoxazol-3-yl}-morpholin-4-yl-methanone]

SMILES	Ki (α1d-AR; [1])	Ki (α1d-AR; [2])	Ki (α1b-AR; [3])	Ki (α1b-AR; [4])	Ki (α1a-AR; [5])	Ki (α1a-AR; [6])
CC(C)Oc1ccccc1N1CCN(CC2CC(CN3CCCCC3=O)=NO2)CC1 (single isomer, unassigned) [Compound 2, 1-{(5R*)-5-[4-(2-isopropoxy-phenyl)-piperazin-1-ylmethyl]-4,5-dihydro-isoxazol-3-ylmethyl}-piperidin-2-one]	4.5 nM	5.2 nM and 4.7 nM and 5.8 nM and 2.3 nM	53.5 nM	79 nM and 41 nM and 56 nM and 38 nM	0.79 nM	1 nM and 0.7 nM and 0.86 nM and 0.6 nM
CC(C)Oc1ccccc1N1CCN(CC2CC(CN3CCCCC3=O)=NO2)CC1 (single isomer, unassigned) [Compound 3, 1-{(5S*)-5-[4-(2-isopropoxy-phenyl)-piperazin-1-ylmethyl]-4,5-dihydro-isoxazol-3-ylmethyl}-piperidin-2-one]	20 nM	20 nM	215 nM	215 nM	2.5 nM	2.5 nM

— US20080221116A1, “ISOXAZOLINE ALPHA 1a/1d ADRENORECEPTOR ANTAGONISTS” (priority 2006, published 2008)
